According to publication PMC7722752, “First-in-human Phase 1 open label study of the BET inhibitor ODM-207 in patients with selected solid tumours” (British Journal of Cancer, 2020):
Like-named read-outs stand apart in the source and are kept apart here.

How the values were obtained:
[1] = test system: patients with selected solid tumours
Text: The study design contained two parts: (1) dose escalation in patients with advanced solid tumours with an innovative single dose accelerated titration procedure in the first cohort (1A), (2) evaluation of food effect on bioavailability (1B). The single-dose accelerated titration procedure in the first cohort involved comparison of measured pharmacokinetic parameters in the first cohort of patients against preclinical models to evaluate whether exposure was within the target range. If the measured exposure was outside the target range (below or above), the protocol allowed for dose adjustment. Dose escalation was performed using a traditional 3 + 3 schedule. […] The relevant national authorities provided regulatory approval and local institutional review boards approved the protocol. All study procedures were conducted in accordance with the Declaration of Helsinki and good clinical practice. All patients provided written informed consent.
The starting dose was chosen as it was reasonably expected to be both pharmacologically active and safe and tolerable. The target exposure for the starting dose was estimated from exposures observed in pre-clinical anti-tumour activity and safety studies. The estimated human dose required was predicted by both human equivalent dose calculations and physiologically-based pharmacokinetic modelling. […] Treatment was taken in the ambulatory setting, except for hospital admissions required for pre-specified study-related procedures.
(§1) Response was assessed using RECIST 1.1 for patients with advanced solid tumours,[20] Prostate Cancer Working Group 3 criteria (PCWG3) for castrate-resistant prostate cancer[21] and Lugano criteria for non-Hodgkin lymphoma.[22]
Safety analyses included all patients who received any doses of treatment. Efficacy evaluation was performed on all patients who received two or more cycles of treatment (≥8 weeks). Data points were excluded from relevant pharmacokinetic and platelet count analyses if samples were taken when the patient was on treatment interruption or within 3 days after resumption of treatment. […] Pre-dose total exposure of <3500 ng/mL was not expected to have significant BET inhibition effect and a level of ≥5000 ng/mL was expected to confer BET inhibition.

[2] = Phase 1 study: plasma pharmacokinetics and food effect; type: in vivo, human; conditions: for metabolite/parent ratio based in AUC(0-t): main metabolite = demethylation product
Text: All patients provided written informed consent.

[3] = test system: non-BET family bromodomains; conditions: preclinical; cited from earlier work
selected solid tumours = test: Phase 1 study: anti-tumour activity (RECIST 1.1, PCWG3, Lugano); type: in vivo, human
Method: as §1
Efficacy evaluation was performed on all patients who received two or more cycles of treatment (≥8 weeks).

[4] = test system: breast cancer and leukaemia and prostate cancer xenograft models; set-up: method as in earlier work; conditions: preclinical; cited from earlier work
BET = test system: BET; set-up: method as in earlier work; conditions: preclinical; cited from earlier work
platelet count = test: Phase 1 study: platelet count as pharmacodynamic biomarker; conditions: in vivo
Text: Platelet count was chosen as a pharmacodynamic biomarker based on the observed robust correlation between BET inhibitor exposure and thrombocytopaenia in preclinical and clinical studies.[13],[14]

[5] = cohort 1A-1 0.6 mg/kg (50 mg) (n = 3)
[6] = cohort 1A-2 1.3 mg/kg (100 mg) (n = 7)

Q: For COc1cc2c(cc1-c1c(C)noc1C)cc(C)c(=O)n2Cc1ccccn1 [ODM-207], which “Related AE: Asthenia” value ([1]; GRADE 1, Total (n = 35)) is on record?
A: 3 (8.6) n (%)

Q: What about the “Related AE: Decreased appetite” value ([1]; GRADE 1, Total (n = 35)) of the same compound?
A: 12 (34) n (%)

Q: What about the “Related AE: Diarrhoea” value ([1]; GRADE 1, Total (n = 35)) of the same compound?
A: 9 (26) n (%)

Q: What about the “Related AE: Dysgeusia” value ([1]; GRADE 1, Total (n = 35)) of the same compound?
A: 4 (11) n (%)

Q: And the “Related AE: Fatigue” value ([1]; GRADE 1, Total (n = 35))?
A: 9 (26) n (%)

Q: What about the “Related AE: Headache” value ([1]; GRADE 1, Total (n = 35)) of the same compound?
A: 7 (20) n (%)

Q: What about the “Related AE: Nausea” value ([1]; GRADE 1, Total (n = 35)) of the same compound?
A: 13 (37) n (%)

Q: And the “Related AE: Thrombocytopaenia” value ([1]; GRADE 1, Total (n = 35))?
A: 15 (43) n (%)

Q: What about the “Related AE: Vomiting” value ([1]; GRADE 1, Total (n = 35)) of the same compound?
A: 7 (20) n (%)

Q: And the “Related AE: Weight loss” value ([1]; GRADE 1, Total (n = 35))?
A: 4 (11) n (%)

Q: What about the “Related AE: Asthenia” value ([1]; GRADE 2, Total (n = 35)) of the same compound?
A: 3 (8.6) n (%)

Q: What about the “Related AE: Decreased appetite” value ([1]; GRADE 2, Total (n = 35)) of the same compound?
A: 8 (23) n (%)

Q: What about the “Related AE: Diarrhoea” value ([1]; GRADE 2, Total (n = 35)) of the same compound?
A: 5 (14) n (%)

Q: What about the “Related AE: Dysgeusia” value ([1]; GRADE 2, Total (n = 35)) of the same compound?
A: 3 (8.6) n (%)

Q: What about the “Related AE: Fatigue” value ([1]; GRADE 2, Total (n = 35)) of the same compound?
A: 6 (17) n (%)

Q: What about the “Related AE: Headache” value ([1]; GRADE 2, Total (n = 35)) of the same compound?
A: 3 (8.6) n (%)

Q: What about the “Related AE: Nausea” value ([1]; GRADE 2, Total (n = 35)) of the same compound?
A: 4 (11) n (%)

Q: And the “Related AE: Thrombocytopaenia” value ([1]; GRADE 2, Total (n = 35))?
A: 8 (23) n (%)

Q: What about the “Related AE: Vomiting” value ([1]; GRADE 2, Total (n = 35)) of the same compound?
A: 3 (8.6) n (%)

Q: And the “Related AE: Weight loss” value ([1]; GRADE 2, Total (n = 35))?
A: 1 (2.9) n (%)

Q: And the “Related AE: Fatigue” value ([1]; GRADE 3, Total (n = 35))?
A: 2 (5.7) n (%)

Q: And the “Related AE: Nausea” value ([1]; GRADE 3, Total (n = 35))?
A: 3 (8.6) n (%)

Q: And the “Related AE: Thrombocytopaenia” value ([1]; GRADE 3, Total (n = 35))?
A: 4 (11) n (%)

Q: And the “Related AE: Weight loss” value ([1]; GRADE 3, Total (n = 35))?
A: 1 (2.9) n (%)

Q: What about the “Related AE: Thrombocytopaenia” value ([1]; GRADE 4, Total (n = 35)) of the same compound?
A: 1 (2.9) n (%)

Q: And the “AEs leading to dose reduction” value ([1]; Total (n = 35))?
A: 4 (11) n (%)

Q: What about the “AEs leading to dosing interruption” value ([1]; Total (n = 35)) of the same compound?
A: 19 (54) n (%)

Q: What about the DLTs ([1]; Total (n = 35)) of the same compound?
A: 1 (2.9) n (%)

Q: What about the “Grade ≥ 3 AEs” value ([1]; Total (n = 35)) of the same compound?
A: 19 (54) n (%)

Q: What about the “Related SAEs” value ([1]; Total (n = 35)) of the same compound?
A: 3 (8.6) n (%)

Q: And the SAEs ([1]; Total (n = 35))?
A: 14 (40) n (%)

Q: And the “Common AE: nausea” value ([1]; any grade, n = 35)?
A: 66%

Q: What about the “AEs leading to dosing interruption” value [1, 5] of the same compound?
A: 2 (67) n (%)

Q: And the “AEs leading to study discontinuation” value [1, 5]?
A: 1 (33) n (%)

Q: What about the “AEs leading to dosing interruption” value [1, 6] of the same compound?
A: 4 (57) n (%)

Q: And the DLTs [1, 6]?
A: 1 (14) n (%)

Q: And the “Grade ≥ 3 AEs” value [1, 6]?
A: 3 (43) n (%)

Q: And the SAEs ([1]; cohort 1A-2 1.3 mg/kg (100 mg) (n = 7), oral once daily)?
A: 2 (29) n (%)

Q: And the “AEs leading to dosing interruption” value ([1]; cohort 1A-3 1.5 mg/kg (n = 5))?
A: 2 (40) n (%)

Q: What about the “AEs leading to study discontinuation” value ([1]; cohort 1A-3 1.5 mg/kg (n = 5)) of the same compound?
A: 2 (40) n (%)

Q: What about the “Grade ≥ 3 AEs” value ([1]; cohort 1A-3 1.5 mg/kg (n = 5)) of the same compound?
A: 2 (40) n (%)

Q: And the SAEs ([1]; cohort 1A-3 1.5 mg/kg (n = 5))?
A: 2 (40) n (%)

Q: And the “AEs leading to dose reduction” value ([1]; cohort 1A-4 2 mg/kg (n = 6))?
A: 2 (33) n (%)

Q: What about the “AEs leading to dosing interruption” value ([1]; cohort 1A-4 2 mg/kg (n = 6)) of the same compound?
A: 5 (83) n (%)

Q: What about the “AEs leading to study discontinuation” value ([1]; cohort 1A-4 2 mg/kg (n = 6)) of the same compound?
A: 1 (17) n (%)

Q: And the “Grade ≥ 3 AEs” value ([1]; cohort 1A-4 2 mg/kg (n = 6))?
A: 4 (67) n (%)

Q: And the “Related SAEs” value ([1]; cohort 1A-4 2 mg/kg (n = 6))?
A: 2 (33) n (%)

Q: And the SAEs ([1]; cohort 1A-4 2 mg/kg (n = 6))?
A: 3 (50) n (%)

Q: And the “AEs leading to dose reduction” value ([1]; cohort 1B-1 1.1 mg/kg (n = 10))?
A: 1 (10) n (%)

Q: What about the “AEs leading to dosing interruption” value ([1]; cohort 1B-1 1.1 mg/kg (n = 10)) of the same compound?
A: 4 (40) n (%)

Q: And the “AEs leading to study discontinuation” value ([1]; cohort 1B-1 1.1 mg/kg (n = 10))?
A: 3 (30) n (%)

Q: What about the “Grade ≥ 3 AEs” value ([1]; cohort 1B-1 1.1 mg/kg (n = 10)) of the same compound?
A: 6 (60) n (%)

Q: And the SAEs ([1]; cohort 1B-1 1.1 mg/kg (n = 10))?
A: 3 (30) n (%)

Q: And the “AEs leading to dose reduction” value ([1]; cohort 1B-2 1.4 mg/kg (n = 4))?
A: 1 (25) n (%)

Q: What about the “AEs leading to dosing interruption” value ([1]; cohort 1B-2 1.4 mg/kg (n = 4)) of the same compound?
A: 2 (50) n (%)

Q: What about the “AEs leading to study discontinuation” value ([1]; cohort 1B-2 1.4 mg/kg (n = 4)) of the same compound?
A: 2 (50) n (%)

Q: And the “Grade ≥ 3 AEs” value ([1]; cohort 1B-2 1.4 mg/kg (n = 4))?
A: 4 (100) n (%)

Q: What about the “Related SAEs” value ([1]; cohort 1B-2 1.4 mg/kg (n = 4)) of the same compound?
A: 1 (25) n (%)

Q: What about the SAEs ([1]; cohort 1B-2 1.4 mg/kg (n = 4)) of the same compound?
A: 4 (100) n (%)

Q: What about the “highest studied dose achieved” value ([1]; due to cumulative toxicity beyond the DLT treatment window) of the same compound?
A: 2 mg/kg

Q: What about the “Common AE: anorexia” value ([1]; n = 35) of the same compound?
A: 49%

Q: What about the “Common AE: diarrhoea” value ([1]; n = 35) of the same compound?
A: 40%

Q: And the “Common AE: fatigue” value ([1]; n = 35)?
A: 43%

Q: What about the “Common AE: headache” value ([1]; n = 35) of the same compound?
A: 37%

Q: And the “Common AE: vomiting” value ([1]; n = 35)?
A: 40%

Q: What about the “Common AE: weight loss” value ([1]; n = 35) of the same compound?
A: 23%

Q: What about the deaths on study ([1]; n = 35) of the same compound?
A: five deaths on study, all of which were considered not related to ODM-207

Q: And the “treatment-related grade ≥3 adverse event: fatigue” value ([1]; n = 35)?
A: 5.7%

Q: And the “treatment-related grade ≥3 adverse event: nausea” value ([1]; n = 35)?
A: 8.6%

Q: What about the “treatment-related grade ≥3 adverse event: thrombocytopaenia” value ([1]; n = 35) of the same compound?
A: 14.3%

Q: What about the “Treatment discontinuation due to AEs” value ([1]; of 35 treated patients) of the same compound?
A: 5 (14%) patients

Q: And the dose-limiting toxicity observed ([1]; one patient, 100 mg (1.9 mg/kg), cohort 1A-2)?
A: intolerable grade 3 fatigue

Q: And the “maximum tolerated dose (MTD)” value ([1]; oral once daily, 28-day cycle, based upon observed adverse events beyond the DLT period)?
A: 2 mg/kg

Q: What about the “patients who experienced a treatment-related AE” value ([1]; overall, n = 35) of the same compound?
A: 31 (89%) patients

Q: And the “metabolite/parent ratio based in AUC(0-t)” value ([2]; day 1)?
A: 0.1–0.2

Q: And the “metabolite/parent ratio based in AUC(0-t)” value ([2]; day 15)?
A: 0.1–0.5

Q: What about the exposure versus dose ([2]; dose escalation 0.6–2.0 mg/kg) of the same compound?
A: dose proportional exposure

Q: And the “Plasma exposure (AUC0-24) under fed condition versus fasting condition” value ([2]; food effect cohort, single dose, light breakfast vs overnight fasting)?
A: 1.5 fold

Q: And the “increase of mean AUC(0-t) between day 1 and day 15 of dosing” value ([2]; n = 28, 95% CI 2.9, 3.8)?
A: 3.4 fold

Q: And the “absorption and elimination (plasma pharmacokinetics)” value ([2]; oral)?
A: slow absorption and elimination

Q: And the “cross-reactivity with non-BET family bromodomains” value [3]?
A: minimal cross-reactivity

Q: And the “non-CR/non-PD (non-measurable disease) as best response” value (selected solid tumours; 21 evaluable patients)?
A: 6 (29%) patients

Q: What about the “progressive disease (PD) as best response” value (selected solid tumours; 21 evaluable patients) of the same compound?
A: 9 (43%) patients

Q: And the “stable disease (SD) as best response” value (selected solid tumours; 21 evaluable patients)?
A: 29%

Q: What about the “partial or complete response (PR, CR)” value (selected solid tumours; 21 evaluable patients (≥ 8 weeks of treatment), RECIST) of the same compound?
A: None had a partial or complete response

Q: And the “patients with NMC with SD as best response” value (selected solid tumours; NUT midline carcinoma, four patients)?
A: One out of four

Q: What about the “correlation between progression-free survival and increased exposure” value (selected solid tumours; in vivo) of the same compound?
A: no correlation

Q: What about the “median (range) duration of SD” value (selected solid tumours; in vivo) of the same compound?
A: 16.3 (8.0–23.0) weeks

Q: What about the median progression-free survival (selected solid tumours; in vivo) of the same compound?
A: 2.2 months

Q: What about the “progression-free survival, range” value (selected solid tumours; in vivo) of the same compound?
A: 0.5–9.7 months

Q: What about the “Treatment discontinuation due to disease progression” value (selected solid tumours; of 35 treated patients) of the same compound?
A: 28 (80%) patients

Q: What about the “decline in PSA below baseline level” value (selected solid tumours; prostate cancer patients) of the same compound?
A: None of the prostate cancer patients showed decline in PSA below baseline level

Q: What about the tumour growth inhibition [4] of the same compound?
A: preclinical evidence of tumour growth inhibition

Q: What about the BET inhibition potency (BET) of the same compound?
A: highly potent

Q: And the “correlation between plasma exposure and changes in platelet count over time” value (platelet count)?
A: strong correlation

Q: What about the “recovery of platelet count upon treatment interruption” value (platelet count) of the same compound?
A: Prompt recovery
